Laboratory results as given in patent US7045510B2, “Methods for prevention and treatment of mastitis” (priority 2004, dated 2006).

Columns and labels:
[1] = tested on: intramammary infections (mastitis); assay: Intramammary infection status before dry-off and after calving, all 4 quarters infused at dry-off; assay type: in vivo, cows; conditions: for new infections (quarters infected during the dry period) / old infections (quarters remaining infected after calving): group total after calving; for infected quarters at dry-off: baseline before infusion
Description: (§1) Experimental Design: At dry-off all quarters of even numbered cows (n=39) were infused with antibiotics (Cefa-Dri (Fort Dodge Animal Health, Fort Dodge, Iowa 50501) containing 300 mg cephapirin […] in peanut oil) approved for use by FDA. All quarters of odd numbered cows (n=40) were infused with dextran (total dose 100 mg DEAE-dextran (Sigma Chemical Co. St. Louis, Mo.)) in 1 ml of sterile filtered distilled water and suspended in 9 ml of peanut oil (Sigma).

[2] = tested on: milk somatic cell concentration (SCC); assay: Milk somatic cell concentration (SCC) after intramammary infusion at drying-off; assay type: in vivo, dairy cows
Description: as §1
Mammary quarters of 4 dairy cows at drying-off were infused with either 100 mg of DEAE-dextran, peanut oil, or were uninfused. Secretions were collected at 0, 24, 48, 72, 96, and 120 hours post infusion for determination of milk somatic cell concentration.

[3] = Milk yield in the subsequent lactation after infusion at dry-off; assay type: in vivo, cows; conditions: for Mean yearly milk yield: mean per cow of the group
Description: as §1

With diethylaminoethyl-dextran the “new infections (quarters infected during the dry period)” value [1] was 26 new infections quarters, the “old infections (quarters remaining infected after calving)” value [1] was 17 old infections quarters and the “new infections (quarters infected during the dry period)” value ([1]; listed as dextran) was 26 quarters. For the same substance, the “old infections (quarters remaining infected after calving)” value ([1]; listed as dextran) was 17 quarters, the “infected quarters at dry-off” value ([1]; group total) was 38 quarters infected and the “infected quarters at dry-off” value ([1]; group total, listed as dextran) was 38 quarters. The “total infections after calving” value ([1]; group total, old plus new) was 43 infections, the “net gain of intramammary infections” value ([1]; total after calving compared to infected quarters at dry-off) was 5 infections and the “milk somatic cell count” value ([2]; 0 hour, quarters of 4 dairy cows infused with 100 mg at drying-off) was 129000 mL⁻¹. The “milk somatic cell count” value ([2]; 24 hours post infusion, 100 mg per quarter at drying-off) was 19,591 ×10^3/ml, the “milk somatic cell count” value ([2]; 72 hours post infusion, 100 mg per quarter at drying-off) was 8,000 ×10^3/ml and the “milk somatic cell concentration (SCC) increased to” value ([2]; total dose 100 mg in 1 ml water suspended in 9 ml peanut oil (FIG. 1)) was “one million”. For the same substance, the “clinical symptoms (swelling, elevated body temperature, redness of udder, pain)” value ([2]; total dose 100 mg intramammary) was “no clinical symptoms”, the “milk yield per cow more than cows that received antibiotics” value [3] was “approximately 700 pounds” and the “Mean yearly milk yield” value [3] was “Mean 26029 pounds”. For the same substance, the “Mean yearly milk yield” value ([3]; listed as dextran) was 26,029 pounds.
